{
  "source": "patent US12214015B2",
  "about": "“Use of c-type natriuretic peptide variants to treat osteoarthritis” (priority 2015, dated 2025)",
  "key": {"[1]": {"experiment": "in vivo", "settings": "rat", "description": "(§1) As summarized in Table 6, groups of rats were treated with vehicle, Pro-Gly-CNP-37, or Gly-CNP-37. The dose route was intraarticular (IA) or subcutaneous (SC). The dose scheduling was either intraarticular administration three times per week (M, W, F) for 3 weeks (TIW×3W) or subcutaneous administration once daily for approximately 3 weeks (QD×3W). […] IA injections were given as a fixed dose whereas SC injections were given at a given dose per weight based on the most recently recorded body weight. For all rats, body weights were measured predose. For a 300-gram rat, the weekly IA dose regimen for the low, middle, and high levels was approximately equivalent to 15, 50, and 150 μg/kg/day, respectively.\n(§2) The pharmacokinetic (PK) and pharmacodynamic (PD) properties of the CNP variants were evaluated. For the PK/PD analysis, timed blood collections were performed on 3 rats/group/time point as follows: 15, 30, 60, and 120 minutes post dosing for the IA groups and 5, 15, 30, 60, and 120 minutes post dosing for the SC groups. After blood collection, synovial lavage fluid (SLF, ˜50 μL/knee) was collected from each rat's left (normal) and right (operated) knee.\n(§3) Individual plasma samples were analyzed for Pro-Gly-SNP-37 levels and mean concentration vs. time profiles were analyzed using a non-compartmental model for extravascular administration in Phoenix WinNonlin software."}, "[2]": {"settings": "rat, in vivo", "description": "as §1, §2, §3"}, "[3]": {"experiment": "Body weight gain, late stage rat osteoarthritis study (Example 3)", "assay_type": "in vivo", "from_the_text": "A model of late stage osteoarthritis was used to evaluate the efficacy of Pro-Gly-CNP-37 in pre-developed osteoarthritis (i.e., primary osteoarthritis). As described above in Examples 1 and 2, osteoarthritis was induced in the rear legs of rats by severing the meniscus. However, in contrast to Examples 1 and 2, the lesion pathology was allowed to progress for three weeks before IA or SC treatment with Pro-Gly-CNP-37 thereby simulating pre-existing OA (i.e., primary osteoarthritis). The overall study design is outlined in Table 9. In particular, male Lewis rats underwent a unilateral medial meniscal tear surgery on Study Day 0; administration of control vehicle or Pro-Gly-CNP-37 began on Study Day 21; and animals were euthanized at scheduled time points following the last dose on Study Day 22 (Groups 1-4) or Study Day 40 (Groups 5-11). The primary endpoints evaluated included histopathological examination of chondrocyte death/cartilage degeneration in the knee."}, "[4]": {"molecular_target": "T1, NPR-B (Homo sapiens, UniProt P20594)", "T1 sequence (P20594 23-1047)": "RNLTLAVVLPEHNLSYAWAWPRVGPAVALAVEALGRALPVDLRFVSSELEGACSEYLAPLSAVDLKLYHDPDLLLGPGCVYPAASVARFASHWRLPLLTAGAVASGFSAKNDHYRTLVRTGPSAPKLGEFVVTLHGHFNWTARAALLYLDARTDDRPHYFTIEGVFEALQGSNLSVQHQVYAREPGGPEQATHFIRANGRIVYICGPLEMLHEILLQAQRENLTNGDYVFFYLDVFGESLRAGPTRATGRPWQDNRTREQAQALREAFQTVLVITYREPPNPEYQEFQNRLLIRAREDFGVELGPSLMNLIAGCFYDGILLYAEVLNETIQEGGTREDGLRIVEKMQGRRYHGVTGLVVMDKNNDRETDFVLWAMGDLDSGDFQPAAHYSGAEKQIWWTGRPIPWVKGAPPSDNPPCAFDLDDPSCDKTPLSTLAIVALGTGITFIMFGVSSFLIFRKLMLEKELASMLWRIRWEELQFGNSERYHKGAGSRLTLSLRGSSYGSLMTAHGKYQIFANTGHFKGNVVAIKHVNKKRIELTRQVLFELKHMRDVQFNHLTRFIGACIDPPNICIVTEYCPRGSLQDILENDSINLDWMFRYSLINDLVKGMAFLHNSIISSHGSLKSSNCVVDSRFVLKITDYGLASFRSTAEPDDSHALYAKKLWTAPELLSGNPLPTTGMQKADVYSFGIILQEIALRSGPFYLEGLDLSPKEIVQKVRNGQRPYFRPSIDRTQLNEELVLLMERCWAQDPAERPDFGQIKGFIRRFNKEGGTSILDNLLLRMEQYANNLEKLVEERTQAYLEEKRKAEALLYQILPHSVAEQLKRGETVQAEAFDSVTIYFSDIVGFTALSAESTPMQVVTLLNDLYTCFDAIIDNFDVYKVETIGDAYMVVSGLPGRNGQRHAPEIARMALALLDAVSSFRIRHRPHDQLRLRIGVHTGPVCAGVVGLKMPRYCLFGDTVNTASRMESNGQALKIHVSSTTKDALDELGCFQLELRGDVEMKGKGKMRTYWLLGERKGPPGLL", "experiment": "NPR-B signaling studies", "assay_type": "biochemical", "from_the_text": "Natural substrates of NEP are small and natriuretic peptides (about 2.2 to about 3.2 kDa) are the largest of the natural substrates. According to X-ray crystallographic analyses, the NEP active-site is buried deep inside a central cavity, effectively restricting the size of substrate molecules to no more than about 3 kDa (Oefner et al., J. Mol. Biol., 296: 341-349 (2000)).\nThe present disclosure encompasses CNP variants designed for improved NPR-B selectivity based on a homology-based structural model of the NPR-B/CNP complex. Combining the experimental and computational structure data of natriuretic peptides bound to the various receptors with the published functional data, CNP variants were generated that continue to bind to NPR-B, but can potentially have reduced affinity to the NPR-C clearance receptor. […] Accordingly, CNP variants were generated to replace the corresponding Gly8 residue with a larger residue (Ser, Val, Thr, or Asn) to disrupt the CNP binding to NPR-C without affecting its binding to NPR-B. Further, one or more mutations were introduced at the C-terminal end of CNP, encompassing Gly15 to Gly21, which is predicted to interact with receptor-specific residues, based on the detailed structural analyses of the receptor/peptide complexes. […]"}},
  "note": "Bridges are numbered along the chain shown (N, C = ends). Where no end group is shown, it is not given here.",
  "data": [
    {"compound": "CC[C@H](C)[C@@H]1NC(=O)[C@H](CCCNC(=N)N)NC(=O)[C@H](CC(=O)O)NC(=O)[C@H](CC(C)C)NC(=O)[C@H](CCCCN)NC(=O)[C@H](CC(C)C)NC(=O)CNC(=O)[C@H](Cc2ccccc2)NC(=O)[C@@H](NC(=O)CNC(=O)[C@H](CCCCN)NC(=O)[C@H](CO)NC(=O)[C@H](CC(C)C)NC(=O)CNC(=O)[C@H](CCCCN)NC(=O)[C@H](CCCCN)NC(=O)[C@H](CC(N)=O)NC(=O)[C@H](C)NC(=O)CNC(=O)[C@H](CCCCN)NC(=O)[C@H](Cc2ccc(O)cc2)NC(=O)[C@H](CCCCN)NC(=O)[C@H](CCCNC(=N)N)NC(=O)[C@H](C)NC(=O)[C@H](CC(N)=O)NC(=O)[C@@H]2CCCN2C(=O)[C@H](Cc2c[nH]cn2)NC(=O)[C@H](CCC(=O)O)NC(=O)[C@H](CCC(N)=O)NC(=O)CNC(=O)[C@@H]2CCCN2)CSSC[C@@H](C(=O)O)NC(=O)CNC(=O)[C@H](CC(C)C)NC(=O)CNC(=O)[C@H](CO)NC(=O)[C@H](CCSC)NC(=O)[C@H](CO)NC(=O)CNC1=O", "note": "[Pro-Gly-CNP-37]", "values": [
      {"measurement": "AUC(0-t)", "setting": "[1]; 10.5 ug", "value": 28.6, "unit": "ng·h/mL"},
      {"measurement": "Cmax", "setting": "[1]; 10.5 ug", "value": 33.8, "unit": "ng/mL"},
      {"measurement": "Tmax", "setting": "[1]; 10.5 ug", "value": 15, "unit": "min"},
      {"measurement": "clearance", "setting": "[1]; 10.5 ug", "value": 5.77, "unit": "mL/min"},
      {"measurement": "half-life", "setting": "[1]; 10.5 ug", "value": 27, "unit": "min"},
      {"measurement": "AUC(0-t)", "setting": "[1]; 35.5 ug", "value": 99, "unit": "ng·h/mL"},
      {"measurement": "Cmax", "setting": "[1]; 35.5 ug", "value": 110, "unit": "ng/mL"},
      {"measurement": "Tmax", "setting": "[1]; 35.5 ug", "value": 15, "unit": "min"},
      {"measurement": "clearance", "setting": "[1]; 35.5 ug", "value": 5.36, "unit": "mL/min"},
      {"measurement": "half-life", "setting": "[1]; 35.5 ug", "value": 34.9, "unit": "min"},
      {"measurement": "AUC(0-t)", "setting": "[1]; 105 ug", "value": 147, "unit": "ng·h/mL"},
      {"measurement": "Cmax", "setting": "[1]; 105 ug", "value": 357, "unit": "ng/mL"},
      {"measurement": "Tmax", "setting": "[1]; 105 ug", "value": 15, "unit": "min"},
      {"measurement": "clearance", "setting": "[1]; 105 ug", "value": 9.19, "unit": "mL/min"},
      {"measurement": "half-life", "setting": "[1]; 105 ug", "value": 38.1, "unit": "min"},
      {"measurement": "AUC(0-t)", "setting": "[1]; sc, 150 ug/kg", "value": 16.3, "unit": "ng·h/mL"},
      {"measurement": "Cmax", "setting": "[1]; sc, 150 ug/kg", "value": 28.4, "unit": "ng/mL"},
      {"measurement": "Tmax", "setting": "[1]; sc, 150 ug/kg", "value": 15, "unit": "min"},
      {"measurement": "half-life", "setting": "[1]; sc, 150 ug/kg", "value": 23.8, "unit": "min"},
      {"measurement": "exposure vs dose", "setting": "[2]", "value": "generally dose-proportional"},
      {"measurement": "appearance in systemic circulation", "setting": "[2]; sc", "value": "appeared rapidly in systemic circulation"},
      {"measurement": "CL", "setting": "[2]; sc, 150 ug/kg", "value": 121, "unit": "mL/min"},
      {"measurement": "body weight gain", "setting": "[3]; 105 μg IA vs IA vehicle", "value": "significantly reduced"},
      {"measurement": "body weight gain", "setting": "[3]; 150 μg/kg SC vs SC vehicle", "value": "significantly reduced"},
      {"measurement": "body weight change (FIG. 27)", "setting": "[3]; treated animals, IA and SC", "value": "reduced body weight change"}
    ]},
    {"compound": "CFGLKLDRIGSMSGLGC (disulfide 1-17 (inferred)) [CNP-17]", "values": [
      {"measurement": "binding and activation of NPR-B compared with wtCNP-22", "setting": "[4]", "value": "can still bind and activate NPR-B similarly"}
    ]},
    {"compound": "DLRVDTKSRAAWARLLQEHPNARKYKGANKKGLSKGCFGLKLDRIGSMSGLGC (ends and bridges not checked; cysteine pairing not given here) [CNP-53]", "values": [
      {"measurement": "binding and activation of NPR-B compared with wtCNP-22", "setting": "[4]", "value": "can still bind and activate NPR-B similarly"}
    ]}
  ]
}
